Measurements taken from publication PMC10063609, “Discovery of novel cardiac troponin activators using fluorescence polarization-based high throughput screening assays” (Scientific Reports, 2023).
Values joined by “and” are separate entries in the source; they are usually repeats but may differ in a detail not shown here. Equal entries are not always repeated. Structures can show the parent of a compound that is named as a salt. *1 amine or outer side, *2 acyl side, *3 side chain or, on linkers, in order; H or OH if unused. Where a SMILES comes first, the peptide text is derived from it. Bridges are numbered along the chain shown (N, C = ends). [ ]: non-standard residue; d: D form. The star is where a group is joined. hTyr(3S-OH,4S-OH,3'-OSO3H) = N[C@H](C(=O)O)[C@H](O)[C@@H](O)c1ccc(O)c(OS(=O)(=O)O)c1; Orn(4R-OH,5R-OH) = O=C([C@H](C[C@@H](O)[C@@H](O)N[*:3])N[*:1])[*:2]; Pro(3S-OH,4S-Me) = C[C@H]1CN[C@H](C(=O)O)[C@H]1O; X1 = CCCCCOc1ccc(-c2cc(-c3ccc(C(=O)*)cc3)no2)cc1; Gln(3R-OH) = NC(=O)C[C@@H](O)[C@H](N)C(=O)O; Hyp = O=C(O)[C@@H]1C[C@@H](O)CN1

target: interaction between cTnC and switch peptide of cTnI (cTnISP) (Homo sapiens, UniProt P63316); experiment: Fluorescence polarization HTS and dose-response, cTnC/FAM-cTnISP; format: binding; conditions: cTnISP primary screen, ENZO Screenwell library, single concentration 50 μmol/L

Compound | FP (mP)
CCN(CC)CCOc1ccc(C(=C(Cl)c2ccccc2)c2ccccc2)cc1 [Clomiphene Citrate] | 63.2 mP
N[C@@H](Cc1cc(I)c(Oc2cc(I)c(O)c(I)c2)c(I)c1)C(=O)[O-].[Na+] [Levothyroxine·Na] | 119.8 mP
CCCCCOc1ccc(-c2cc(-c3ccc(C(=O)N[C@H]4C[C@@H](O)[C@@H](O)NC(=O)[C@@H]5[C@@H](O)[C@@H](C)CN5C(=O)[C@H]([C@H](O)CC(N)=O)NC(=O)[C@H]([C@H](O)[C@@H](O)c5ccc(O)c(OS(=O)(=O)O)c5)NC(=O)[C@@H]5C[C@@H](O)CN5C(=O)[C@H]([C@@H](C)O)NC4=O)cc3)no2)cc1 [Micafungin] (X1-[Orn(4R-OH,5R-OH)]T[Hyp][hTyr(3S-OH,4S-OH,3'-OSO3H)][Gln(3R-OH)][Pro(3S-OH,4S-Me)]; lactam 1-C) | 128.6 mP
COC(=O)[C@H]1[C@H]2C[C@@H]3c4[nH]c5cc(OC)ccc5c4CCN3C[C@H]2C[C@@H](OC(=O)c2cc(OC)c(OC)c(OC)c2)[C@@H]1OC [Reserpine] | 88.4 mP

Other lines, results leading:

FP (mP) | Compound
88.9 mP | CN(C)CCCN1c2ccccc2Sc2ccc(Cl)cc21 [Chlorpromazine.HCl]
82.4 mP | C[C@@H](NCCCc1cccc(C(F)(F)F)c1)c1cccc2ccccc12 [Cinacalcet.HCl]
85.2 mP | CC(C)/N=c1\cc2n(-c3ccc(Cl)cc3)c3ccccc3nc-2cc1Nc1ccc(Cl)cc1 [Clofazimine]
76.1 mP | OCCN1CCN(CCCN2c3ccccc3Sc3ccc(C(F)(F)F)cc32)CC1 [Fluphenazine.HCl]
83.7 mP | COc1cc2ncnc(Nc3ccc(F)c(Cl)c3)c2cc1OCCCN1CCOCC1 [Gefitinib]
73.2 mP | OCCN1CCN(CCCN2c3ccccc3Sc3ccc(Cl)cc32)CC1 [Perphenazine]
76.9 mP | O=C(c1ccc(OCCN2CCCCC2)cc1)c1c(-c2ccc(O)cc2)sc2cc(O)ccc12 [Raloxifene.HCl]

same assay, conditions: cTnISP primary screen, LOPAC 1280 library, single concentration 50 μmol/L

Compound | FP (mP)
CCCCCCCCCCCCCCCC(=O)OC(CC(=O)O)C[N+](C)(C)C.[Cl-] (racemic) [Palmitoyl-DL-Carnitine chloride] | 109.8 mP
COc1cc(N2CCN(C)CC2)ccc1Nc1nccc(-c2cn(C)c3cnccc23)n1 [AZ 191] | 88.5 mP
CCOC(=O)c1c(CSc2ccccc2)n(C)c2cc(Br)c(O)c(CN(C)C)c12.Cl [Arbidol hydrochloride] | 89.4 mP
c1ccc2cc(-c3ncc[nH]3)ccc2c1 [Benazoline oxalate] | 83.7 mP
Br.Cc1cc2nc(NCCCO)n(CC(=O)c3cc(C(C)(C)C)c(O)c(C(C)(C)C)c3)c2cc1C [CID2858522] | 89.6 mP
Clc1ccc(C(c2ccc(Cl)cc2)n2cc[n+](CC(OCc3ccc(Cl)cc3Cl)c3ccc(Cl)cc3Cl)c2)cc1 (stereo not shown) [Calmidazolium chloride] | 83.6 mP
Cc1c2ccncc2c(C)c2c1[nH]c1ccccc12 [Ellipticine] | 86.1 mP
CCN(CC)CCOc1ccc(/C(=C(/Cl)c2ccccc2)c2ccccc2)cc1.Cl [Enclomiphene hydrochloride] | 78.4 mP
NCCOc1cc(C(=O)Nc2cc(OCCN)c3ccccc3n2)nc(C(=O)Nc2cc(OCCN)c3ccccc3n2)c1 [Pyridostatin trifluoroacetate salt] | 85.6 mP

The remaining lines, values ahead:

FP (mP) | Compound
87 mP | Cc1cc(CN2CCN(c3c(Br)cnc4nc(-c5ccc(N6CCN(C)CC6)cc5)[nH]c34)CC2)no1 [CCT 137690]
84.1 mP | Cc1cc(CN)cc(C)c1NC(=O)c1ccc(-c2cc(Cl)ccc2Cl)o1 [CYM50358]
91.3 mP | CN(C)CCCN1c2ccccc2Sc2ccc(Cl)cc21 [Chlorpromazine.HCl]
87.3 mP | OCCN1CCN(CCCN2c3ccccc3Sc3ccc(C(F)(F)F)cc32)CC1 [Fluphenazine dihydrochloride]
88.6 mP | O=C1NCN(c2ccccc2)C12CCN(CCCC(c1ccc(F)cc1)c1ccc(F)cc1)CC2 [Fluspirilene]
87 mP | Cc1nc(Nc2cnn(C3CCNCC3)c2)nc2c1N(C)C(=O)c1cc3ccccc3cc1N2C [HTH 01-015]
84.3 mP | O=C(c1ccc(Nc2nccc(-c3cc4ccccc4s3)n2)cc1)N1CCC(N2CCCC2)CC1 [IKK-16 dihydrochloride]
86.8 mP | O=C(O)C(O)C(O)C(=O)O.Oc1ccc2c(c1)CC[C@H](c1ccccc1)[C@@H]2c1ccc(OCCN2CCCC2)cc1 [Lasofoxifene tartrate]
86.5 mP | CSc1ccc2c(c1)C(N1CCN(C)CC1)Cc1ccccc1S2 (stereo not shown) [Methiothepin mesylate]
88.7 mP | CC(C)[C@H]1c2ccc(F)cc2CC[C@@]1(CCN(C)CCCc1nc2ccccc2[nH]1)OC(=O)C1CC1 [NNC 55-0396]
86.2 mP | CN1CCN(CCCN2c3ccccc3Sc3ccc(Cl)cc32)CC1 [Prochlorperazine dimaleate]
85.5 mP | O=C(c1ccc(OCCN2CCCCC2)cc1)c1c(-c2ccc(O)cc2)sc2cc(O)ccc12 [Raloxifene.HCl]

same assay, conditions: cTnISP primary screen, TOCRIScreen library, single concentration 50 μmol/L

Compound | FP (mP)
Cn1c(NC[C@@H](N)Cc2ccccc2)nc(-c2ccncc2)c(-c2ccc3ccccc3c2)c1=O [AMG 548] | 90 mP
COc1cc(N2CCN(C)CC2)ccc1Nc1nccc(-c2cn(C)c3cnccc23)n1 [AZ 191] | 83.4 mP
Cc1cc(N2C[C@@H](C)N[C@@H](C)C2)ncc1-c1ccc(-c2nc3c(ccn3C)c(=O)[nH]2)cc1 [AZ 6102] | 83.4 mP
Cc1c(NC(=O)OC[C@@H]2COCCN2)cn2ncnc(Nc3ccc4c(cnn4Cc4cccc(F)c4)c3)c12.Cl.Cl [BMS 599626 dihydrochloride] | 88.2 mP
Cc1c(-c2ccc(O)cc2)n(Cc2ccc(OCCN3CCCCCC3)cc2)c2ccc(O)cc12 [Bazedoxifene acetate] | 74.5 mP
COc1cc2nc(N3CCC(N4CCCCC4)CC3)nc(NC3CCCCCC3)c2cc1OC.Cl.Cl [C 021 dihydrochloride] | 87.1 mP
CCCNc1ccc2ncc(-c3ccc4[nH]ncc4c3)n2n1.O=C(O)C(F)(F)F [CHR 6494 trifluoroacetate] | 81.9 mP
CCCC[C@@H](C=O)NC(=O)[C@H](CC(C)C)NC(=O)OCc1ccccc1 [Calpeptin] | 121.8 mP
c1ccc(Cn2c(-c3ccc(OC[C@H](C4CCNCC4)n4c(-c5ccccc5)nc5ccccc54)cc3)nc3ccccc32)cc1 [Deltarasin] | 87.7 mP
CCCCCCCCNC(=O)/C(C#N)=C/c1cn(CCCN(C)C)c2ccccc12 [Dynole 34-2] | 64.1 mP
CN(C(=O)CN1C(=O)COc2cc(Cl)c(Cl)cc21)[C@@H](CN1CCCC1)c1ccc(-c2cccc(C(N)=O)c2)cc1.Cl [GSK 1562590 hydrochloride] | 89.9 mP
CCOc1cc2ncc(C#N)c(Nc3ccc(OCc4cccc(F)c4)c(Cl)c3)c2cc1NC(=O)/C=C/CN(C)C [HKI 357] | 73.4 mP
CCc1ccc(OCc2ccccc2C(=O)Nc2ccc3nc(C)cc(N)c3c2)cc1 [JTC 801] | 84.3 mP
COc1cc(N2CCC(O)CC2)ccc1Nc1cc(Nc2ccccc2S(=O)(=O)C(C)C)c2cc[nH]c2n1.Cl.Cl [Mps1-IN-1 dihydrochloride] | 84.6 mP
CCN(CC)CCCC(C)Nc1nc(C)cc(Nc2ccc3nc(C)cc(N)c3c2)n1 (stereo not shown) [NSC 23766] | 89.5 mP
CCN(CC)CCOc1ccc(Nc2ncc3cc(-c4c(Cl)cccc4Cl)c(=O)n(C)c3n2)cc1.Cl.Cl [PD 166285 dihydrochloride] | 78.7 mP
Cn1cc(-c2[nH]c3cc(NC(=O)[C@H](N)C4CCCCC4)cc4c3c2C=NNC4=O)cn1 [PF 477736] | 64 mP
COc1cc(C(=O)NC2CCN(C)CC2)ccc1Nc1ncc2c(n1)N(C1CCCC1)CC(F)(F)C(=O)N2C [Ro 3280] | 81.8 mP
O=C(Nc1cc(C(F)(F)F)cc(C(F)(F)F)c1)c1cnc(Cl)nc1C(F)(F)F [SP 100030] | 70.3 mP

Now from value to compound:

FP (mP) | Compound
82.8 mP | CCN(CC)CCCCN1c2ccccc2Oc2ccc(Cl)cc21.Cl [10-DEBC hydrochloride]
77.8 mP | CCN1CCN(Cc2ccc(-c3cc4c(N[C@H](C)c5ccccc5)ncnc4[nH]3)cc2)CC1 [AEE 788]
86 mP | O=C1CCc2ccc(OCCCCN3CCN(c4cccc(Cl)c4Cl)CC3)cc2N1 [Aripiprazole]
73.2 mP | CC(C)c1cnn2c(NCc3ccccc3)cc(NCCCCCCN)nc12.Cl.Cl [BS 181 dihydrochloride]
77.1 mP | O[C@@H](CN1CCNCC1)Cn1c2ccc(Br)cc2c2cc(Br)ccc21 [Bax channel blocker]
87 mP | CC(C)COCC(CN(Cc1ccccc1)c1ccccc1)N1CCCC1 (stereo not shown) [Bepridil hydrochloride]
80.4 mP | OCCNC1CCCc2c1[nH]c1ccc(-c3ccccc3)cc21 (stereo not shown) [CASIN]
83.6 mP | Cc1cc(CN2CCN(c3c(Br)cnc4nc(-c5ccc(N6CCN(C)CC6)cc5)[nH]c34)CC2)no1 [CCT 137690]
74.4 mP | CCN1CCN(Cc2ccc(C(=O)Nc3ccc(C)c(Oc4ccc5c(c4)CC(=O)N5)c3)cc2C(F)(F)F)CC1.Cl.Cl [DDR1-IN-1 dihydrochloride]
81 mP | CN1CCN(c2ccc(/C=C(\C#N)c3ccccc3Br)cc2)CC1.Cl.Cl [DG 172 dihydrochloride]
64.9 mP | CCOc1cc(C(=O)N2CCC(N3CCN(C)CC3)CC2)ccc1Nc1ncc2c(n1)N(C1CCCC1)c1ccccc1C(=O)N2C [ERK5-IN-1]
83.2 mP | CCn1c(=O)c(-c2ccc(Cl)cc2Cl)cc2cnc(Nc3ccc(N4CCNCC4)c(F)c3)nc21 [FRAX 486]
81.8 mP | COc1cc2ncnc(Nc3ccc(F)c(Cl)c3)c2cc1OCCCN1CCOCC1 [Gefitinib]
87.1 mP | Cc1nc(Nc2cnn(C3CCNCC3)c2)nc2c1N(C)C(=O)c1cc3ccccc3cc1N2C [HTH 01-015]
82 mP | O=C(c1ccc(Nc2nccc(-c3cc4ccccc4s3)n2)cc1)N1CCC(N2CCCC2)CC1 [IKK 16]
87.5 mP | CC(C)(Cc1ccc2ccccc2c1)NC[C@@H](O)COc1cccc(Cl)c1C#N.Cl [NPS 2143 hydrochloride]
68.4 mP | Nc1ncnc2c1c(-c1cccc(OCc3ccccc3)c1)cn2C1CC(CN2CCCC2)C1 (stereo not shown) [NVP ADW 742]
76.4 mP | Cc1[nH]c(/C=C2\C(=O)Nc3ccc(S(=O)(=O)Cc4c(Cl)cccc4Cl)cc32)c(C)c1C(=O)N1CCC[C@@H]1CN1CCCC1 [PHA 665752]
80.2 mP | COc1ccc(Cl)cc1NC(=O)Nc1cc(C)nc2ccccc12 [PQ 401]
78.2 mP | CN1CCN(CCCN2c3ccccc3Sc3ccc(Cl)cc32)CC1 [Prochlorperazine dimaleate]
57.9 mP | CS(=O)(=O)O.Cn1cc(C2=C(c3cn(CCCSC(=N)N)c4ccccc34)C(=O)NC2=O)c2ccccc21 [Ro 31-8220 mesylate]

same assay, conditions: cTnISP primary screen, TOCRIScreen library, single concentration 50 μmol/L; listed as Raloxifene hydrochloride

FP (mP) | Compound
87.9 mP and 82.1 mP | O=C(c1ccc(OCCN2CCCCC2)cc1)c1c(-c2ccc(O)cc2)sc2cc(O)ccc12 [Raloxifene.HCl]
